Results reported in patent publication US3969521A, “Pharmaceutical compositions containing tetrahydroalstonine and method for treating circulation disorders” (Science Union et Cie, Societe Francaise de Recherche Medical, priority 1974, dated 1976).
Entries after “also recorded” stand apart in the source; their conditions may differ.

Assays:
[1] = system: recovery of learned memories; experiment: Recovery of learned memories after electroshock (aquatic maze crossing); assay type: in vivo, rat; conditions: for effect on the recovery of learned memory: rat, in vivo
Source text: Effects of tetrahydroalstonine on the recovery of learned memories on rats.
Tetrahydroalstonine has been tested on lots of rats in order to determine how fast it allows the recovery of learned memories after supramaximal electroshock in comparision with Vincamine and Papaverine. These last compounds are known to be active on the circulation namely as vasodilating agents.
In this test, as described by C. Giurgea (J. Pharmacol. (Paris) 3 17 (1972)), the rats are submitted to a submaximal electroshock which causes a spatio-temporal desorientation. This syndrom is evidenced by the difficulties the tested animals encountered for crossing over a maze filled with cold water without any error, after they have been submitted to the electroshock. The rats have been previously trained to swimm through this maze and the training has been renewed four times for 2 days.
The electric shock was delivered by means of a Neurovar apparatus (ALVAR Electronics) the third day. 20 Minutes after the electro shock, each lot of rats is tested and the time for crossing over the maze is determined. Immediately after, the rats received the compound to be tested by intra oesophageal tubing. Each lot is then experienced four times, 1, 2, 3, and 4 hours after the electroshock.
The score of performances of each individual is recorded and every error during the crossing over noticed.
The compounds to be tested (papaverine, vincamine and tetrahydroalstonine) are given to the animals, suspended in an aqueous solution of carboxymethylcellulose and sorbitan monooleate.
Papaverine and vincamine were administered at dosis ranging from 1 to 20 mg/kg. Tetrahydroalstonine was administered at a dosis of 0.6 mg/kg, 6 mg/kg and 60 mg/kg.
A lot of rats received only the aqueous solvent under the same volume (0.5 ml/100 g animal) as controls.
Therein are reported for each lot of rats the number of errors and the average time for crossing over the maze during the 5 tests performed after the animals have been subjected to the electroshock.
The treatment has been given 20 mn after the electroshock, immediately
after the first crossing over

central nervous system = experiment: Effects on the central nervous system; assay type: in vivo
[2] = system: analgetic effect of Morphine; experiment: Analgetic effect of Morphine; conditions: in vivo
[3] = 10 mg/kg P.O., 20 minutes (before treatment)
[4] = 10 mg/kg P.O., 20 minutes after electroshock (before treatment)
[5] = 20 mg/kg P.O., 20 minutes (before treatment)
[6] = 20 mg/kg P.O., 20 minutes after electroshock (before treatment)

Row | SMILES | a = variation of average number of errors as regard as the controls [1, 3] | E = average number of errors [1, 4] | T = average time for crossing over [1, 4] | E = average number of errors ([1]; 10 mg/kg P.O., 60 minutes) | T = average time for crossing over ([1]; 10 mg/kg P.O., 60 minutes) | a = variation of average number of errors as regard as the controls ([1]; 10 mg/kg P.O., 60 minutes) | E = average number of errors ([1]; 10 mg/kg P.O., 120 minutes) | T = average time for crossing over ([1]; 10 mg/kg P.O., 120 minutes) | a = variation of average number of errors as regard as the controls ([1]; 10 mg/kg P.O., 120 minutes) | E = average number of errors ([1]; 10 mg/kg P.O., 180 minutes) | T = average time for crossing over ([1]; 10 mg/kg P.O., 180 minutes) | a = variation of average number of errors as regard as the controls ([1]; 10 mg/kg P.O., 180 minutes) | E = average number of errors ([1]; 10 mg/kg P.O., 240 minutes) | T = average time for crossing over ([1]; 10 mg/kg P.O., 240 minutes) | a = variation of average number of errors as regard as the controls ([1]; 10 mg/kg P.O., 240 minutes) | effect on the recovery of learned memory (onset) ([1]; 20 mg/kg) | a = variation of average number of errors as regard as the controls [1, 5] | E = average number of errors [1, 6] | T = average time for crossing over [1, 6] | E = average number of errors ([1]; 20 mg/kg P.O., 60 minutes) | also measured
1 | CC[C@]12CCCN3CCc4c(n(c5ccccc45)[C@@](O)(C(=O)OC)C1)[C@@H]32 [Vincamine] | - | 10,8 | 135,6 seconds | 7,2 | 82,7 seconds | - | 4,6 | 44,1 seconds | - | 5,6 | 52,8 seconds | + | 4,3 | 38,6 seconds | - | delayed | + | 14,3 | 124,5 seconds | 7,1 | number of mistakes ([1]; 10 mg/kg): did not show any decrease in the number of mistakes; performances ([1]; 10 mg/kg, after 2 hours): slight improvement; start of the improving effect after the administration ([1]; 20 mg/kg): 40 min; start of the improving effect after the electroshock ([1]; 20 mg/kg): 60 mn; T = average time for crossing over ([1]; 20 mg/kg P.O., 60 minutes): 58,4 seconds; a = variation of average number of errors as regard as the controls ([1]; 20 mg/kg P.O., 60 minutes): -; E = average number of errors ([1]; 20 mg/kg P.O., 120 minutes): 5,2; T = average time for crossing over ([1]; 20 mg/kg P.O., 120 minutes): 38,2 seconds; a = variation of average number of errors as regard as the controls ([1]; 20 mg/kg P.O., 120 minutes): -; E = average number of errors ([1]; 20 mg/kg P.O., 180 minutes): 2,5; T = average time for crossing over ([1]; 20 mg/kg P.O., 180 minutes): 22,1 seconds; a = variation of average number of errors as regard as the controls ([1]; 20 mg/kg P.O., 180 minutes): -; b = statistical value (student's test), number of errors ([1]; 20 mg/kg P.O., 180 minutes): 0,0005; E = average number of errors ([1]; 20 mg/kg P.O., 240 minutes): 3,2; T = average time for crossing over ([1]; 20 mg/kg P.O., 240 minutes): 24,2 seconds; a = variation of average number of errors as regard as the controls ([1]; 20 mg/kg P.O., 240 minutes): -; b = statistical value (student's test), number of errors ([1]; 20 mg/kg P.O., 240 minutes): 0,025; number of mistakes ([1]; 20 mg/kg, 3 and 4 hours after the electroshock): significantly decreased; effect on the recovery of learned memory [1]: improving effect
2 | COC(=O)C1=CO[C@@H](C)[C@H]2CN3CCc4c([nH]c5ccccc45)[C@@H]3C[C@H]12 [Raubasine, reference compound] |  |  |  |  |  |  |  |  |  |  |  |  |  |  |  |  |  |  |  |  | effect on the central nervous system (central nervous system; 50 to 100 mg/kg perorally): merely a sedative; effect on the central nervous system (central nervous system; dosage not stated): merely endowed with sedative properties; effect on the analgetic effect of Morphine [2]: does not exert such effect; also recorded: does not increase the analgetic effects of morphine
3 | COc1ccc(Cc2nccc3cc(OC)c(OC)cc23)cc1OC [Papaverine] | + | 14,3 | 154,2 seconds | 7,3 | 75,5 seconds | - | 4,8 | 54,2 seconds | - | 4,7 | 49,0 seconds | - | 2,4 | 25,4 seconds | - | delayed | + | 14,0 | 150,7 seconds | 10,4 | time after which improvement in performance appeared statistically significant ([1]; 10 mg/kg): 240 mn; b = statistical value (student's test), number of errors ([1]; 10 mg/kg P.O., 240 minutes): 0,0005; time after which improvement in performance appeared statistically significant ([1]; 20 mg/kg): 180 mn; T = average time for crossing over ([1]; 20 mg/kg P.O., 60 minutes): 89,8 seconds; a = variation of average number of errors as regard as the controls ([1]; 20 mg/kg P.O., 60 minutes): +; E = average number of errors ([1]; 20 mg/kg P.O., 120 minutes): 5,6; T = average time for crossing over ([1]; 20 mg/kg P.O., 120 minutes): 53,4 seconds; a = variation of average number of errors as regard as the controls ([1]; 20 mg/kg P.O., 120 minutes): -; E = average number of errors ([1]; 20 mg/kg P.O., 180 minutes): 2,9; T = average time for crossing over ([1]; 20 mg/kg P.O., 180 minutes): 29,7 seconds; a = variation of average number of errors as regard as the controls ([1]; 20 mg/kg P.O., 180 minutes): -; b = statistical value (student's test), number of errors ([1]; 20 mg/kg P.O., 180 minutes): 0,005; E = average number of errors ([1]; 20 mg/kg P.O., 240 minutes): 3,0; T = average time for crossing over ([1]; 20 mg/kg P.O., 240 minutes): 32,8 seconds; a = variation of average number of errors as regard as the controls ([1]; 20 mg/kg P.O., 240 minutes): -; b = statistical value (student's test), number of errors ([1]; 20 mg/kg P.O., 240 minutes): 0,01; effect on the recovery of learned memory [1]: improving effect
